Assays:
[1] = test system: deep partial thickness wounds; test: 7% bacitracin zinc ointment with and without polyurethane occlusion, healing of deep partial thickness wounds (Example II); type: in vivo, white Yorkshire pigs
Source text: (§1) To test the effect of bacitracin zinc on epidermal resurfacing, approximately 60 rectangular wounds measuring 7 mm wide, 10 mm long, and 0.5 mm deep were made in each of eighteen white Yorkshire pigs in the paravertebral and thoracic areas with a Castroviejo keratome. The electrokeratome was fitted with a razor blade modified so that the cutting edge was reduced to 7 mm. The wounds were separated from one another by at least 15 mm of normal skin.
(§2) The bacitracin zinc was applied in impregnated foam shortly (within 5 minutes) after wounding on day 0 and once daily thereafter for 7 days. In order to rule out the possibility that wounds made in different anatomical regions heal at different rates the regions used for each treatment group varied for each animal.
(§3) Two days after wounding and each day thereafter some of the wounds with surrounding normal skin were excised from each treatment group. The excisions were made with a Castroviejo keratome fitted with a 22 mm blade, set to cut at a depth of 0.7 mm. After incubating the specimens in 2N sodium bromide at 37° C. for three hours, the epidermis was separated from the dermis and the epidermal sheet (22 sq mm) was assessed for re-epithelialization as previously described. Briefly, this method is a macroscopic examination of the separated epidermis for defects. Defects are visualized as holes in the separated epidermal sheet or as a lack of epidermal continuum in the area that contain the wound. The wound is considered re-epithelialized if there are no defects in the epidermis and not re-epithelialized if there are one or more defects.
Further tests were conducted to determine the effect of bacitracin zinc covered with an occlusive film. The wounds in these were treated according to one of four treatment regiments: (1) untreated; (2) polyurethane film; (3) 7% bacitracin zinc ointment, and (4) 7% bacitracin zinc ointment plus polyurethane film. The methodology employed was substantially the same as in Example I.

[2] = test system: epidermal wounds; test: Effect of bacitracin zinc impregnated foam dressing on epidermal wound healing (Example I); type: in vivo, white Yorkshire pigs; conditions: for HT50 (time in days for 50% of wounds to be completely healed): probit analysis
Source text: as §1
On each of the experimental animals, approximately one third of the wounds were assigned to one of three treatment groups: (1) control (no treatment), (2) vehicle alone, (low melting point petrolatum 3.0 g) or (3) bacitracin zinc (either 1%, 2.5%, 5%, 7%, 10% or 20% in 3.0 g). A total of 99 wounds on 3 pigs were treated with each of the varying bacitracin zinc combinations. Vehicle was applied to 594 wounds in 18 animals. The other 594 wounds were the untreated controls.
as §2, §3
The time needed for 50% of the wounds in each experimental animal to heal HT50) has been estimated from curves generated by probit analysis of the data presented in Table I. The HT50 values and the relative rate of healing are compared in Table II. Wounds treated with 7% bacitracin zinc healed 46% more rapidly than untreated wounds and 28% faster than wounds treated with the ointment alone. Vehicle treated wounds healed approximately 25% faster than wounds left open to the air.

[3] = bacitracin zinc as 7% ointment, listed as BAC. ZN

bacitracin zinc
HT50 (time in days for 50% of wounds to be completely healed) ([1]; bacitracin zinc as 7% ointment): 4.1 days | rate of healing COMPARED WITH PU FILM ([1]; bacitracin zinc as 7% ointment): about 4% | rate of healing Compared with Untreated ([1]; bacitracin zinc as 7% ointment): about 24% | rate of healing COMPARED WITH PU FILM [1, 3]: +4% | rate of healing Compared with Untreated [1, 3]: +24% | % of wounds healed ([1]; day 2 after wounding, bacitracin zinc as 7% ointment): 0% | % of wounds healed ([1]; day 3 after wounding, bacitracin zinc as 7% ointment): 19% | % of wounds healed ([1]; day 4 after wounding, bacitracin zinc as 7% ointment): 42% | % of wounds healed ([1]; day 5 after wounding, bacitracin zinc as 7% ointment): 77% | % of wounds healed ([1]; day 6 after wounding, bacitracin zinc as 7% ointment): 92% | % of wounds healed ([1]; day 7 after wounding, bacitracin zinc as 7% ointment): 100% | further enhancement in the rate of healing over bacitracin zinc used alone ([1]; semipermeable occlusive film applied over the bacitracin zinc impregnated pad): 20% | rate of healing Compared with Untreated ([2]; 1% bacitracin zinc): +23% | rate of healing Compared with Vehicle ([2]; 1% bacitracin zinc): 0% | % of wounds healed ([2]; 1% bacitracin zinc in impregnated foam, day 2 after wounding): 0% | % of wounds healed ([2]; 1% bacitracin zinc in impregnated foam, day 3 after wounding): 0% | % of wounds healed ([2]; 1% bacitracin zinc in impregnated foam, day 4 after wounding): 40% | % of wounds healed ([2]; 1% bacitracin zinc in impregnated foam, day 5 after wounding): 58% | % of wounds healed ([2]; 1% bacitracin zinc in impregnated foam, day 6 after wounding): 95% | % of wounds healed ([2]; 1% bacitracin zinc in impregnated foam, day 7 after wounding): 100% | HT50 (time in days for 50% of wounds to be completely healed) ([2]; 1% bacitracin zinc): 4.5 days | rate of healing Compared with Untreated ([2]; 2.5% bacitracin zinc): +25% | rate of healing Compared with Vehicle ([2]; 2.5% bacitracin zinc): 2% | % of wounds healed ([2]; 2.5% bacitracin zinc in impregnated foam, day 2 after wounding): 0% | % of wounds healed ([2]; 2.5% bacitracin zinc in impregnated foam, day 3 after wounding): 0% | % of wounds healed ([2]; 2.5% bacitracin zinc in impregnated foam, day 4 after wounding): 36% | % of wounds healed ([2]; 2.5% bacitracin zinc in impregnated foam, day 5 after wounding): 60% | % of wounds healed ([2]; 2.5% bacitracin zinc in impregnated foam, day 6 after wounding): 96% | % of wounds healed ([2]; 2.5% bacitracin zinc in impregnated foam, day 7 after wounding): 100% | HT50 (time in days for 50% of wounds to be completely healed) ([2]; 2.5% bacitracin zinc): 4.4 days | rate of healing Compared with Untreated ([2]; 5.0% bacitracin zinc): +34% | rate of healing Compared with Vehicle ([2]; 5.0% bacitracin zinc): 13% | % of wounds healed ([2]; 5.0% bacitracin zinc in impregnated foam, day 2 after wounding): 0% | % of wounds healed ([2]; 5.0% bacitracin zinc in impregnated foam, day 3 after wounding): 11% | % of wounds healed ([2]; 5.0% bacitracin zinc in impregnated foam, day 4 after wounding): 54% | % of wounds healed ([2]; 5.0% bacitracin zinc in impregnated foam, day 5 after wounding): 77% | % of wounds healed ([2]; 5.0% bacitracin zinc in impregnated foam, day 6 after wounding): 95% | % of wounds healed ([2]; 5.0% bacitracin zinc in impregnated foam, day 7 after wounding): 100% | HT50 (time in days for 50% of wounds to be completely healed) ([2]; 5.0% bacitracin zinc): 3.9 days | rate of wound re-epithelialization compared with both untreated and vehicle treated wounds ([2]; 7% bacitracin zinc): significantly greater | rate of healing Compared with Untreated ([2]; 7.0% bacitracin zinc): +46% | rate of healing Compared with Vehicle ([2]; 7.0% bacitracin zinc): 28% | % of wounds healed ([2]; 7.0% bacitracin zinc in impregnated foam, day 2 after wounding): 0% | % of wounds healed ([2]; 7.0% bacitracin zinc in impregnated foam, day 3 after wounding): 36% | % of wounds healed ([2]; 7.0% bacitracin zinc in impregnated foam, day 4 after wounding): 70% | % of wounds healed ([2]; 7.0% bacitracin zinc in impregnated foam, day 5 after wounding): 98% | % of wounds healed ([2]; 7.0% bacitracin zinc in impregnated foam, day 6 after wounding): 100% | % of wounds healed ([2]; 7.0% bacitracin zinc in impregnated foam, day 7 after wounding): 100% | rate of healing Compared with Untreated ([2]; 7.0% bacitracin zinc, listed as bacitracin zinc): 46% | HT50 (time in days for 50% of wounds to be completely healed) ([2]; 7.0% bacitracin zinc): 3.2 days | rate of healing Compared with Untreated ([2]; 10.0% bacitracin zinc): +19% | rate of healing Compared with Vehicle ([2]; 10.0% bacitracin zinc): -6% | % of wounds healed ([2]; 10.0% bacitracin zinc in impregnated foam, day 2 after wounding): 0% | % of wounds healed ([2]; 10.0% bacitracin zinc in impregnated foam, day 3 after wounding): 2% | % of wounds healed ([2]; 10.0% bacitracin zinc in impregnated foam, day 4 after wounding): 33% | % of wounds healed ([2]; 10.0% bacitracin zinc in impregnated foam, day 5 after wounding): 66% | % of wounds healed ([2]; 10.0% bacitracin zinc in impregnated foam, day 6 after wounding): 92% | % of wounds healed ([2]; 10.0% bacitracin zinc in impregnated foam, day 7 after wounding): 100% | HT50 (time in days for 50% of wounds to be completely healed) ([2]; 10.0% bacitracin zinc): 4.8 days | rate of healing Compared with Untreated ([2]; 20.0% bacitracin zinc): +19% | rate of healing Compared with Vehicle ([2]; 20.0% bacitracin zinc): -6% | % of wounds healed ([2]; 20.0% bacitracin zinc in impregnated foam, day 2 after wounding): 0% | % of wounds healed ([2]; 20.0% bacitracin zinc in impregnated foam, day 3 after wounding): 0% | % of wounds healed ([2]; 20.0% bacitracin zinc in impregnated foam, day 4 after wounding): 42% | % of wounds healed ([2]; 20.0% bacitracin zinc in impregnated foam, day 5 after wounding): 58% | % of wounds healed ([2]; 20.0% bacitracin zinc in impregnated foam, day 6 after wounding): 96% | % of wounds healed ([2]; 20.0% bacitracin zinc in impregnated foam, day 7 after wounding): 100% | HT50 (time in days for 50% of wounds to be completely healed) ([2]; 20.0% bacitracin zinc): 4.8 days | effect on healing ([2]; levels higher than 5% to 8% bacitracin zinc): tend in inhibit rather than promote healing | rate of wound re-epithelialization compared with ointment vehicle treated wounds ([2]; the other concentrations of bacitracin zinc (1%, 2.5%, 5%, 10%, 20%)): no significant difference

Source: patent publication US5061689A, “Zinc bacitracin containing wound dressing” (Bioderm, Inc., priority 1986, dated 1991)
